Like-named read-outs stand apart in the source and are kept apart here.
Key:
[1] = Mouse liver microsomes stability with NADPH; details: for half-life at 2 μM / microsomal CLint at 2 μM: male, mouse, microsomes; for Remaining Percentage (%) after 60 min, Mouse: mouse liver microsomes, with NADPH, 2 μM
Procedure: The objective of this study was to estimate in vitro metabolic stability of exemplary compounds in pooled human, male rat and male mouse liver microsomes. The concentrations of exemplary compounds in reaction systems were evaluated by LC-MS/MS for estimating the stability in pooled human, male rat and male mouse liver microsomes. The in vitro intrinsic clearances of test compounds were determined as well.
A master solution in the “Incubation Plate” containing phosphate buffer, ultra-pure H2O, MgCl2 solution and liver microsomes was made according to Table 3. The mixture was pre-warmed at 37° C. water bath for 5 minutes.
40 μL of 10 mM NADPH solution was added to each well. The final concentration of NADPH was 1 mM. The negative control samples were prepared by replacing NADPH with 40 μL of ultra-pure H2O. Samples were prepared in duplicate. Negative controls were prepared in singlet.
The reaction was started with the addition of 4 μL of 200 μM exemplary test compounds or control compounds to each master solution to get the final concentration of 2 μM. This study was performed in duplicate.
Aliquots of 50 μL were taken from the reaction solution at 0, 15, 30, 45 and 60 minutes. The reaction solutions were stopped by the addition of 4 volumes of cold methanol with IS (100 nM alprazolam, 200 nM imipramine, 200 nM labetalol and 2 μM ketoprofen). Samples were centrifuged at 3,220 g for 40 minutes. Aliquot of 90 μL of the supernatant was mixed with 90 μL of ultra-pure H2O and then was used for LC-MS/MS analysis.
LC/MS analysis was performed for all samples from this study using a Shimadzu liquid chromatograph separation system equipped with degasser DGU-20A5R; solvent delivery unit LC-30AD; system controller SIL-30AC; column oven CTO-30A; CTC Analytics HTC PAL System. Mass spectrometric analysis was performed using an Triple Quad™ 5500 instrument.
All calculations were carried out using Microsoft Excel. Peak areas were determined from extracted ion chromatograms. The slope value, k, was determined by linear regression of the natural logarithm of the remaining percentage of the parent drug vs. incubation time curve.
Conversion of the in vitro t1/2 (min) into the in vitro intrinsic clearance (in vitro CLint, in μL/min/mg proteins) was done using the following equation (mean of duplicate determinations): […]

[2] = In vivo pharmacokinetics in male SD rats (IV and PO); details: rat; for AUC(0-inf) / C0 / clearance / AUC(0-t) / half-life / MRT inf / Vd / Cmax / Tmax / bioavailability: male, SD, plasma; for AUC(0-t): read-out: AUC0-tlast; for half-life: read-out: Apparent t1/2 (converted); for MRT inf: read-out: MRT0-inf; for Vd: read-out: Vss; for bioavailability: read-out: F (bioavailability)
Procedure: Example 26: In Vivo Assessment of the Pharmacokinetics in Mice and Rats Formulations were administered intravenously (i.v.) via the tail vein or orally (p.o.) by gavage with disposable feeding needles. i. Analysis software: Phoenix® WinNonlin® 8.2 (Pharsight, Certara, Mountainview, Calif.) ii. Analysis methods: non-compartmental analysis, linear up/log down trapezoidal rule iii. PK parameters: C0, t1/2, AUC0-tlast. AUC0-∞, CL, Vss, MRT, tmax(po), Cmax(po), F, as appropriate • C0 concentration extrapolated to time zero following an i.v. dose • tmax time at which maximum concentration is observed • Cmax maximum observed concentration • Apparent t1/2 apparent terminal half-life • AUC0-tlast area under the concentration vs time curve from time 0 to the time of the last measurable concentration • AUC0-inf area under the concentration vs time curve from time 0 to infinity • CL systemic clearance • MRT0-inf mean residence time from time zero to infinity • Vss steady-state volume of distribution • F bioavailability=(Dose^iv*AUC^po)/(Dose^po*AUC^iv)*100

human 5-HT2A receptor = human 5-HT2A receptor (Homo sapiens (Human), UniProt P28223); test: Radioligand ([3H]-ketanserin) binding assay on human 5-HT2A receptor
Procedure: i. Prepare the assay buffer following the table below;
ii. Preparation of 8 doses of reference and exemplary test compounds starting from 10 mM stock solution as requested by 5-fold serial dilutions with 100%;
iii. […] a. Add 50 μl/well of 0.5% (v/v) PEI to UniFilter-96 GF/B plates. Seal the plates and incubate at 4° C. for 3 hrs; b. After incubation, wash the plates 3 times with ice-cold wash buffer (50 mM Tris, pH7.4);
iv. Preparation of assay plates: a. Dilute cell membrane with assay buffer and add 330 μl/well to 96 round deep well plates to reach a concentration of 20 μg/well; b. Prepare 8 concentrations of reference or exemplary test compounds and add 110 μl/well to 96 round deep well plates; c. Dilute [3H]-ketanserin with assay buffer to 5 nM (5× final concentration) and add 110 μl/well to 96 round deep well plates.
v. Centrifuge the plate at 1000 rpm for 30 secs and then agitate at 600 rpm, R.T. for 5 min.
vi. Seal the plates and incubate the plate at 27° C. for 90 min.
vii. Stop the incubation by vacuum filtration onto GF/B filter plates followed by 4 times washing with ice-cold wash buffer (50 mM Tris, pH7.4).
ix. Seal the filter plates and add 40 μl/well of scintillation cocktail.
x. Read the plate by using a Microbeta2 microplate counter.
For reference and exemplary test compounds, the results are expressed as % Inhibition, using the normalization equation: N=100−100×(U−C2)/(C1−C2), where U is the unknown value, C1 is the average of high controls, and C2 is the average of low controls. The IC50 is determined by fitting percentage of inhibition as a function of compound concentrations with Hill equation using XLfit.

Row | Structure (SMILES) | half-life at 2 μM [1] [h] | microsomal CLint at 2 μM [1] [µL/min/mg] | Remaining Percentage (%) after 60 min, Mouse [1] [%] | AUC(0-inf) ([2]; IV, 0.3 mg/kg) [ng·h/mL] | C0 ([2]; IV, 0.3 mg/kg) [ng/mL] | clearance ([2]; IV, 0.3 mg/kg) [mL/min/kg] | AUC(0-t) ([2]; IV, 0.3 mg/kg) [ng·h/mL] | half-life ([2]; IV, 0.3 mg/kg) [h] | MRT inf ([2]; IV, 0.3 mg/kg) [h] | Vd ([2]; IV, 0.3 mg/kg) [L/kg] | AUC(0-inf) ([2]; PO, 3 mg/kg) [ng·h/mL] | Cmax ([2]; PO, 3 mg/kg) [ng/mL] | Tmax ([2]; PO, 3 mg/kg) [h] | AUC(0-t) ([2]; PO, 3 mg/kg) [ng·h/mL] | half-life ([2]; PO, 3 mg/kg) [h] | bioavailability ([2]; PO, 3 mg/kg) [%] | MRT inf ([2]; PO, 3 mg/kg) [h] | AUC0-inf/Dose ([2]; IV, 0.3 mg/kg) [kg·ng·h/mL/mg] | AUC0-inf/Dose ([2]; PO, 3 mg/kg) [kg·ng·h/mL/mg] | Cmax/Dose ([2]; PO, 3 mg/kg) [kg·ng/mL/mg] | further results
1 | [2H]C([2H])(c1c[nH]c2cccc(OC)c12)[C@H]1CCCN1C([2H])([2H])[2H] [Compound I-39, (R)-4-methoxy-3-((1-(methyl-d3)pyrrolidin-2-yl)methyl-d2)-1H-indole] | 1.6 | 14.4 | 64.91 | 26.5 ± 3.62 | 50.8 ± 4.63 | 192 | 25.9 ± 3.49 | 0.766 ± 0.0369 | 0.882 ± 0.0298 | 10.1 ± 1.01 | 36.5 | 14.8 ± 3.61 | 3.33 ± 2.31 | 1.48 | 1.48 ± 0.813 | 19.6 ± 10.3 | 3.18 | 88.3 ± 12.1 | 17.3 ± 9.09 | 4.92 ± 1.20 | IC50 (human 5-HT2A receptor): 500 to 5000 nM
2 | [2H]C([2H])(c1c[nH]c2cccc(O)c12)[C@H]1CCCN1C([2H])([2H])[2H] [Compound I-44, (R)-3-((1-(methyl-d3)pyrrolidin-2-yl)methyl-d2)-1H-indol-4-ol] | 1.18 | 19.5 | 55.68 | 27.3 ± 0.413 | 70.2 ± 2.67 | 183 | 26.4 ± 0.186 | 0.43 ± 0.0371 | 0.528 ± 0.0255 | 5.8 ± 0.196 | 392 ± 109 | 182 ± 107 | 0.5 ± 0.433 | 384 ± 98.9 | 3.25 ± 1.36 | 144 ± 40.1 | 3.14 ± 1.52 | 91.0 ± 1.38 | 131 ± 36.5 | 60.7 ± 35.5 | IC50 (human 5-HT2A receptor): < 500 nM
3 | [2H]C([2H])([2H])N1CCC[C@@H]1Cc1c[nH]c2cccc(O)c12 [Compound I-2, (R)-3-((1-(methyl-d3)pyrrolidin-2-yl)methyl)-1H-indol-4-ol] | 1.43 | 16.2 | 61.51 | 28.7 ± 3.82 | 77.4 ± 7.22 | 177 | 27.6 ± 3.27 | 0.593 ± 0.262 | 0.609 ± 0.0984 | 6.45 ± 1.4 | 419 ± 56.1 | 201 ± 50.9 | 0.333 ± 0.144 | 409 ± 46.1 | 2.69 ± 1.95 | 146 ± 19.5 | 2.29 ± 0.567 | 95.6 ± 12.7 | 140 ± 18.7 | 66.9 ± 17.0 | IC50 (human 5-HT2A receptor): < 500 nM
